Assays:
[1] = system: Herpes simplex virus type 1 (HSV-1); test: Antiviral activity against HSV-1, viral plaque reduction (ED50); assay type: cell-based; conditions: FIG. 13; deoxyguanosine with MMdCyd
Method: Infected cells were treated with different concentrations of MMdCyd and the concentration required to reduce viral plaque formation by 50%, i.e. ED50, was determined.
^a ED50 : Concentration required to reduce viral plaque formatio
Vero cells were infected with the KOS strain of HSV-1. The compound of compounds indicated in Table 2, below, and are shown graphically in FIGS. 1, (H4 dUrd) and 2 (H4 Urd).
^a Antiviral assays were carried out using Vero cells. All compounds
were added immediately after virus infection.
The antiviral activity of MMdCyd in the presence of H4 dUrd was determined against several strains of HSV-1 and HSV-2.
Vero cells were infected with HSV-1, strain 76 and treated with MMdCyd at different times post virus infection.
The antiviral activity, ^a cyctotoxicity* and antiviral indices of MMdCyd in the presence of H4 dUrd, dGuo and H4 dUrd+dGuo were determined.
^a Antiviral assays were carried out using Vero cells. Compounds were
added immediately after virus infection. Virus HSV1, strains KOS and 76;
KOS, virus input = 50 PFU

[2] = system: Herpes simplex virus type 1 (HSV-1); test: as above; assay type: cell-based; conditions: FIG. 13; HSV-1 KOS and 76, Vero, 20 PFU
[3] = system: Deoxynucleoside Triphosphate (dNTP) Pools in Vero Cells Infected with Herpes Simplex Virus Type 1; test: Deoxynucleoside triphosphate (dNTP) pools in HSV-1 infected Vero cells; assay type: cell-based; conditions: Table 10, HSV-infected
Method: Example 9 was repeated, except that the Vero cells subjected to the treatment had all been infected with HSV-1 KOS strain prior to the treatment.
^a Cells were infected with 10 PFU/cell of HSV1 KOS strain for one
hour. Treatments were given for seven hours.
^a Cells were infected with 10 PFU/cell of HSV1, KOS strain after
^b H4 dUrd in MEM was added immediately after adsorption and
^c H4 dUrd in MEM was added immediately after adsorption and
(§1) Vero cells and HSV-infected Vero cells were treated with dGUO and dGUO and H4 dUrd. The cells were then assayed for the presence of deoxynucleoside triphosphates. Untreated Vero cells were also assayed for the presence of deoxynucleoside triphophate to provide a control.
^c Cells were infected with 10 PFU/cell of HSV1 strain KOS for one

[4] = system: Deoxynucleoside Triphosphate (dNTP) Pools in Uninfected Vero Cells; test: Deoxynucleoside triphosphate (dNTP) pools in uninfected (mock-infected) Vero cells; assay type: cell-based; conditions: Table 10, uninfected
Method: Vero cells were treated with MMdCyd, H4 dUrd and MMdCyd+H4 dUrd. The cells were then assayed for the presence of deoxynucleoside triphosphates. Untreated Vero cells were also assayed for the presence of deoxynucleoside triphosphates, to provide a control.
^a Cells were mock infected for one hour. Different treatments were
^b Values are means of at least two assays of triplicate cell
as §1
Vero cells were treated with N-methyl-MMdCyd. The cells were then assayed for dNTP pools.

Vero cells = test: Survival and viability of Vero cells; conditions: up to 250 μM, rapidly dividing Vero cells
Method: (§2) The survival and viability of Vero cells grown in the presence of 2'-deoxyguanosine, H4 dUrd and deoxyguanosine+H4 dUrd was determined.

[5] = Survival and viability of Vero cells; conditions: monkey, vero cells
Method: as §2

## Nc1nc2c(ncn2[C@H]2C[C@H](O)[C@@H](CO)O2)c(=O)[nH]1 [dGuo, 2'-deoxyguanosine]
[1]
  concentration giving maximal increase in antiherpes activity of MMdCyd: 100 µM
[2]
  effect on antiviral activity of MMdCyd: markedly potentiated
[3]; dGUO 25 μM
  dATP pool: 12 .rho.moles/10^6 cells
  dCTP pool: 23 .rho.moles/10^6 cells
  dGTP pool: 290 .rho.moles/10^6 cells
  dTTP pool: 110 .rho.moles/10^6 cells
[3]; dGUO 50 μM
  dATP pool: 12 .rho.moles/10^6 cells
  dCTP pool: 33 .rho.moles/10^6 cells
  dGTP pool: 373 .rho.moles/10^6 cells
  dTTP pool: 118 .rho.moles/10^6 cells
[3]; dGUO 100 μM
  dATP pool: 12 .rho.moles/10^6 cells
  dCTP pool: 64 .rho.moles/10^6 cells
  dGTP pool: 600 .rho.moles/10^6 cells
  dTTP pool: 214 .rho.moles/10^6 cells
[3]; dGUO 250 μM
  dATP pool: 14 .rho.moles/10^6 cells
  dCTP pool: 78 .rho.moles/10^6 cells
  dGTP pool: 558 .rho.moles/10^6 cells
  dTTP pool: 233 .rho.moles/10^6 cells
[3]; dGUO 500 μM
  dATP pool: 25 .rho.moles/10^6 cells
  dCTP pool: 60 .rho.moles/10^6 cells
  dGTP pool: 738 .rho.moles/10^6 cells
  dTTP pool: 247 .rho.moles/10^6 cells
[4]; dGUO 25 μM
  dATP pool: 18 .rho.moles/10^6 cells
  dCTP pool: 13 .rho.moles/10^6 cells
  dGTP pool: 42 .rho.moles/10^6 cells
  dTTP pool: 17 .rho.moles/10^6 cells
[4]; dGUO 50 μM
  dATP pool: 19 .rho.moles/10^6 cells
  dCTP pool: 9 .rho.moles/10^6 cells
  dGTP pool: 88 .rho.moles/10^6 cells
  dTTP pool: 10 .rho.moles/10^6 cells
[4]; dGUO 100 μM
  dATP pool: 19 .rho.moles/10^6 cells
  dCTP pool: 11 .rho.moles/10^6 cells
  dGTP pool: 76 .rho.moles/10^6 cells
  dTTP pool: 13 .rho.moles/10^6 cells
[4]; dGUO 250 μM
  dATP pool: 29 .rho.moles/10^6 cells
  dCTP pool: 8 .rho.moles/10^6 cells
  dGTP pool: 102 .rho.moles/10^6 cells
  dTTP pool: 13 .rho.moles/10^6 cells
[4]; dGUO 500 μM
  dATP pool: 19 .rho.moles/10^6 cells
  dCTP pool: 7 .rho.moles/10^6 cells
  dGTP pool: 146 .rho.moles/10^6 cells
  dTTP pool: 6 .rho.moles/10^6 cells
Vero cells
  cytotoxicity: devoid of cytotoxicity
[5]
  viability at 25 µM: 100%
  viability at 50 µM: 100%
  viability at 100 µM: 100%
  viability at 250 µM: 100%
  viability at 500 µM: 88%
  viability at 1000 µM: 63%

Source: US4990499A, “Anti-herpes simplex virus activity of 5-alkoxymethyl-2'-deoxycytidimes and their 5-monophosphates” (priority 1989, dated 1991)
